Laboratory results published in the NIST ThermoML archive (doi:10.1016/j.jct.2013.11.027).
± gives the expanded uncertainty stated by the source.

Assays:
[1] = xn = mol fraction of the nth substance listed; details: 101 kPa, Liquid; for speed of sound: Sing-around technique in a fixed-path interferometer; for mass density: Vibrating tube method
[2] = refractive index (Na D-line) (dimensionless); xn = mol fraction of the nth substance listed; details: 101 kPa, Liquid, Standard Abbe refractometry

CCCCCCn1cc[n+](C)c1.F[B-](F)(F)F [1-hexyl-3-methylimidazolium tetrafluoroborate] + C1CCOC1
Details	mass density, 298.15 K [kg/m3]	mass density, 308.15 K [kg/m3]	mass density, 318.15 K [kg/m3]	refractive index, 298.15 K	refractive index, 308.15 K	refractive index, 318.15 K	speed of sound, 298.15 K [m/s]	speed of sound, 308.15 K [m/s]	speed of sound, 318.15 K [m/s]
[1], x1 = 0.0989	954.559 ± 0.22	945.509 ± 0.23	936.105 ± 0.23	–	–	–	1306.3 ± 1.4	1263.5 ± 1.4	1221.2 ± 1.4
[1], x1 = 0.2022	1005.23 ± 0.24	996.175 ± 0.24	987.171 ± 0.24	–	–	–	1346.4 ± 1.5	1308 ± 1.5	1270.1 ± 1.5
[1], x1 = 0.3014	1040.84 ± 0.31	1032.56 ± 0.3	1023.55 ± 0.29	–	–	–	1379.6 ± 1.6	1344.7 ± 1.6	1310.1 ± 1.6
[1], x1 = 0.3985	1066.08 ± 0.39	1058.03 ± 0.39	1049.53 ± 0.38	–	–	–	1406.7 ± 1.7	1374.4 ± 1.7	1342.6 ± 1.7
[1], x1 = 0.5109	1089.28 ± 0.51	1081.23 ± 0.5	1072.72 ± 0.49	–	–	–	1431.3 ± 1.8	1401.3 ± 1.8	1371.8 ± 1.8
[1], x1 = 0.5974	1103.2 ± 0.6	1095.15 ± 0.59	1087.75 ± 0.58	–	–	–	1447 ± 1.9	1418.5 ± 1.9	1390.3 ± 1.9
[1], x1 = 0.6974	1116.29 ± 0.72	1109.24 ± 0.71	1102.04 ± 0.7	–	–	–	1462.8 ± 2	1435.6 ± 2	1408.7 ± 2
[1], x1 = 0.8045	1128.3 ± 0.86	1121.25 ± 0.85	1114.44 ± 0.84	–	–	–	1477.3 ± 2.1	1451.1 ± 2.1	1425.4 ± 2.1
[1], x1 = 0.8865	1135.58 ± 0.97	1128.53 ± 0.96	1121.52 ± 0.95	–	–	–	1486.9 ± 2.2	1461.3 ± 2.2	1436.2 ± 2.2
[1], x1 = 1	1145.11 ± 1.1	1137.71 ± 1.1	1130.49 ± 1.1	–	–	–	1496.7 ± 2.3	1472 ± 2.3	1447.7 ± 2.3
[2], x1 = 0.0989	–	–	–	1.41416 ± 0.00039	1.41006 ± 0.00039	1.40595 ± 0.0004	–	–	–
[2], x1 = 0.2022	–	–	–	1.42016 ± 0.0004	1.41657 ± 0.0004	1.41275 ± 0.00041	–	–	–
[2], x1 = 0.3014	–	–	–	1.42373 ± 0.00041	1.42043 ± 0.00041	1.4171 ± 0.00042	–	–	–
[2], x1 = 0.3985	–	–	–	1.42607 ± 0.00043	1.42284 ± 0.00043	1.41964 ± 0.00043	–	–	–
[2], x1 = 0.5109	–	–	–	1.4279 ± 0.00044	1.42491 ± 0.00045	1.42175 ± 0.00045	–	–	–
[2], x1 = 0.5974	–	–	–	1.42888 ± 0.00046	1.42609 ± 0.00046	1.42305 ± 0.00046	–	–	–
[2], x1 = 0.6974	–	–	–	1.42974 ± 0.00048	1.427 ± 0.00048	1.42418 ± 0.00048	–	–	–
[2], x1 = 0.8045	–	–	–	1.4305 ± 0.00049	1.42774 ± 0.00049	1.42511 ± 0.00049	–	–	–
[2], x1 = 0.8865	–	–	–	1.43095 ± 0.00051	1.42822 ± 0.00051	1.42548 ± 0.00051	–	–	–
[2], x1 = 1	–	–	–	1.43167 ± 0.00053	1.4289 ± 0.00053	1.42612 ± 0.00053	–	–	–

CCCCCCCC[n+]1ccn(C)c1.F[B-](F)(F)F [1-methyl-3-octylimidazolium tetrafluoroborate] + C1CCOC1
Details	mass density, 298.15 K [kg/m3]	mass density, 308.15 K [kg/m3]	mass density, 318.15 K [kg/m3]	refractive index, 298.15 K	refractive index, 308.15 K	refractive index, 318.15 K	speed of sound, 298.15 K [m/s]	speed of sound, 308.15 K [m/s]	speed of sound, 318.15 K [m/s]
[1], x1 = 0.0963	944.168 ± 0.21	934.385 ± 0.22	924.531 ± 0.22	–	–	–	1310.8 ± 1.4	1268.5 ± 1.4	1226.8 ± 1.4
[1], x1 = 0.2018	987.574 ± 0.23	978.487 ± 0.23	969.198 ± 0.23	–	–	–	1351.2 ± 1.5	1313.4 ± 1.5	1276.2 ± 1.5
[1], x1 = 0.312	1018.46 ± 0.29	1010.19 ± 0.29	1001.93 ± 0.28	–	–	–	1384.9 ± 1.6	1350.7 ± 1.6	1317.1 ± 1.6
[1], x1 = 0.4027	1037.11 ± 0.37	1029.2 ± 0.36	1021.32 ± 0.35	–	–	–	1406.3 ± 1.7	1374.4 ± 1.7	1343 ± 1.7
[1], x1 = 0.4917	1051.3 ± 0.45	1043.65 ± 0.44	1035.82 ± 0.43	–	–	–	1422.9 ± 1.8	1392.6 ± 1.8	1362.8 ± 1.8
[1], x1 = 0.6241	1067.66 ± 0.58	1060.32 ± 0.57	1053.02 ± 0.56	–	–	–	1442.5 ± 1.9	1413.9 ± 1.9	1385.9 ± 1.9
[1], x1 = 0.6862	1073.96 ± 0.65	1066.73 ± 0.63	1059.49 ± 0.62	–	–	–	1450.2 ± 2	1422.2 ± 2	1394.9 ± 2
[1], x1 = 0.7615	1080.76 ± 0.73	1073.65 ± 0.72	1066.46 ± 0.71	–	–	–	1458.6 ± 2.1	1431.1 ± 2.1	1404.5 ± 2.1
[1], x1 = 0.8612	1088.58 ± 0.85	1081.55 ± 0.84	1074.56 ± 0.83	–	–	–	1470.2 ± 2.2	1444.2 ± 2.2	1416.3 ± 2.2
[1], x1 = 1	1097.61 ± 1	1090.9 ± 1	1084.17 ± 1	–	–	–	1481.1 ± 2.3	1453.9 ± 2.3	1428.2 ± 2.3
[2], x1 = 0.0963	–	–	–	1.41425 ± 0.00039	1.40956 ± 0.00039	1.40529 ± 0.0004	–	–	–
[2], x1 = 0.2018	–	–	–	1.42039 ± 0.0004	1.4162 ± 0.0004	1.41236 ± 0.00041	–	–	–
[2], x1 = 0.312	–	–	–	1.42432 ± 0.00042	1.42045 ± 0.00042	1.41715 ± 0.00042	–	–	–
[2], x1 = 0.4027	–	–	–	1.42658 ± 0.00043	1.4228 ± 0.00043	1.41965 ± 0.00043	–	–	–
[2], x1 = 0.4917	–	–	–	1.42817 ± 0.00044	1.42451 ± 0.00044	1.42147 ± 0.00044	–	–	–
[2], x1 = 0.6241	–	–	–	1.42996 ± 0.00047	1.42631 ± 0.00046	1.42348 ± 0.00046	–	–	–
[2], x1 = 0.6862	–	–	–	1.43062 ± 0.00048	1.42695 ± 0.00047	1.42415 ± 0.00047	–	–	–
[2], x1 = 0.7615	–	–	–	1.43129 ± 0.00049	1.4277 ± 0.00049	1.42493 ± 0.00049	–	–	–
[2], x1 = 0.8612	–	–	–	1.43207 ± 0.00051	1.42846 ± 0.00051	1.4258 ± 0.00051	–	–	–
[2], x1 = 1	–	–	–	1.43296 ± 0.00053	1.42939 ± 0.00053	1.42684 ± 0.00053	–	–	–
